Measurements published in patent US5556744A, “Methods and compositions for diagnosing and treating certain HIV infected patients” (The Trustees of the University of Pennsylvania, priority 1994, dated 1996).

Assays:
[1] = test system: maternal sera (antibodies); assay: ELISA peptide-binding of maternal sera (Example 6); parameters: species or system human; details: for Number of Non-Transmitters which bound to peptide / Percent of Non-Transmitters which bound to peptide: N = 12; for Number of Transmitters which bound to peptide / Percent of Transmitters which bound to peptide: N = 4
Text: A total of 86 maternal sera samples obtained from patients of the Hospital of the University of Pennsylvania during the third trimester of pregnancy were used in this study 58 (67%) were non-transmitters and 28 (33%) were transmitters. This is approximately consistent with the national average (i.e. a rate of transmission between 25-30%). Transmission status was based upon serological or molecular diagnosis of children (at an age of greater than 15 months) born to these mothers. Because of the constraints on the volume of serum available for many of these samples, not all sera were analyzed with all the peptides. However, each sera sample was run with at least 40 peptides.
These peptides are of an average length of 16 amino acids and covered the entire external as well as the transmembrane glycoprotein of HIV-1. Peptide binding was analyzed by ELISA essentially as described in Example 3.
The results of one study, using some of the peptides identified above among others, is provided in Table 12, which illustrates the number and percent of non-transmitters which bound to the tested peptide. The percentage designation refers to the percentage of sera samples which bound to a particular peptide. A value of greater than 0% means that at least one of the samples bound to the particular peptides.

[2] = test system: maternal HIV+ sera (antibodies); assay: RIA / ELISA binding of maternal HIV+ sera to gp120 and gp41 peptides (Example 3); parameters: species or system human
Summary of the method: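 Peptides were coated at 10 μg/ml in carbonate buffer pH 9.6 and blocked with 1% BSA. Sera at 1:50 and 1:500 were incubated overnight at 4°C and detected with ¹²⁵I anti-human IgG (RIA) or HRP/TMB at OD450 (ELISA). Specific binding was taken as peptide minus no-peptide wells, scored as a ratio to normal human serum.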

[3] = Serum No. 1, Non-Transmission Group
[4] = Serum No. 2, Non-Transmission Group
[5] = Serum No. 3, Non-Transmission Group
[6] = Serum No. 4, Transmission Group
[7] = Serum No. 5, Transmission Group
[8] = Serum No. 6, Non-Transmission Group
[9] = Serum No. 7, Non-Transmission Group
[10] = Serum No. 8, Non-Transmission Group
[11] = Serum No. 9, Non-Transmission Group
[12] = Serum No. 10, Transmission Group
[13] = Serum No. 11, Non-Transmission Group
[14] = Serum No. 12, Non-Transmission Group
[15] = Serum No. 13, Transmission Group
[16] = Serum No. 14, Transmission Group
[17] = Serum No. 15, Transmission Group
[18] = Serum No. 16, Non-Transmission Group
[19] = Serum No. 17, Non-Transmission Group
[20] = Serum No. 18, Non-Transmission Group
[21] = Serum No. 19, Transmission Group
[22] = Serum No. 20, Non-Transmission Group

Sequence | Number of Non-Transmitters which bound to peptide [1] | Percent of Non-Transmitters which bound to peptide [1] [%] | Number of Transmitters which bound to peptide [1] | Percent of Transmitters which bound to peptide [1] [%] | Binding of maternal HIV+ serum to peptide (sera/NHS ratio) [2, 3] | Binding of maternal HIV+ serum to peptide (sera/NHS ratio) [2, 4] | Binding of maternal HIV+ serum to peptide (sera/NHS ratio) [2, 5] | Binding of maternal HIV+ serum to peptide (sera/NHS ratio) [2, 6] | Binding of maternal HIV+ serum to peptide (sera/NHS ratio) [2, 7] | Binding of maternal HIV+ serum to peptide (sera/NHS ratio) [2, 8] | Binding of maternal HIV+ serum to peptide (sera/NHS ratio) [2, 9] | Binding of maternal HIV+ serum to peptide (sera/NHS ratio) [2, 10] | Binding of maternal HIV+ serum to peptide (sera/NHS ratio) [2, 11] | Binding of maternal HIV+ serum to peptide (sera/NHS ratio) [2, 12] | Binding of maternal HIV+ serum to peptide (sera/NHS ratio) [2, 13] | Binding of maternal HIV+ serum to peptide (sera/NHS ratio) [2, 14] | Binding of maternal HIV+ serum to peptide (sera/NHS ratio) [2, 15] | Binding of maternal HIV+ serum to peptide (sera/NHS ratio) [2, 16] | Binding of maternal HIV+ serum to peptide (sera/NHS ratio) [2, 17] | Binding of maternal HIV+ serum to peptide (sera/NHS ratio) [2, 18] | further results
EGGERDRDRSIRLVN [Peptide 129] | 0 | 0 | 0 | 0 | + (which value is between 2 to 3) | - (specific OD450 or cpm of sera sample binding to peptide divided by the specific OD450 or cpm of NHS sample binding to peptide, which value is less than 2) | - (specific OD450 or cpm of sera sample binding to peptide divided by the specific OD450 or cpm of NHS sample binding to peptide, which value is less than 2) | - (specific OD450 or cpm of sera sample binding to peptide divided by the specific OD450 or cpm of NHS sample binding to peptide, which value is less than 2) | - (specific OD450 or cpm of sera sample binding to peptide divided by the specific OD450 or cpm of NHS sample binding to peptide, which value is less than 2) | - (specific OD450 or cpm of sera sample binding to peptide divided by the specific OD450 or cpm of NHS sample binding to peptide, which value is less than 2) | - (specific OD450 or cpm of sera sample binding to peptide divided by the specific OD450 or cpm of NHS sample binding to peptide, which value is less than 2) | - (specific OD450 or cpm of sera sample binding to peptide divided by the specific OD450 or cpm of NHS sample binding to peptide, which value is less than 2) | - (specific OD450 or cpm of sera sample binding to peptide divided by the specific OD450 or cpm of NHS sample binding to peptide, which value is less than 2) | - (specific OD450 or cpm of sera sample binding to peptide divided by the specific OD450 or cpm of NHS sample binding to peptide, which value is less than 2) | - (specific OD450 or cpm of sera sample binding to peptide divided by the specific OD450 or cpm of NHS sample binding to peptide, which value is less than 2) | - (specific OD450 or cpm of sera sample binding to peptide divided by the specific OD450 or cpm of NHS sample binding to peptide, which value is less than 2) | - (specific OD450 or cpm of sera sample binding to peptide divided by the specific OD450 or cpm of NHS sample binding to peptide, which value is less than 2) | - (specific OD450 or cpm of sera sample binding to peptide divided by the specific OD450 or cpm of NHS sample binding to peptide, which value is less than 2) | - (specific OD450 or cpm of sera sample binding to peptide divided by the specific OD450 or cpm of NHS sample binding to peptide, which value is less than 2) | - (specific OD450 or cpm of sera sample binding to peptide divided by the specific OD450 or cpm of NHS sample binding to peptide, which value is less than 2) | Binding of maternal HIV+ serum to peptide (sera/NHS ratio) [2, 19]: - (specific OD450 or cpm of sera sample binding to peptide divided by the specific OD450 or cpm of NHS sample binding to peptide, which value is less than 2); Binding of maternal HIV+ serum to peptide (sera/NHS ratio) [2, 20]: - (specific OD450 or cpm of sera sample binding to peptide divided by the specific OD450 or cpm of NHS sample binding to peptide, which value is less than 2); Binding of maternal HIV+ serum to peptide (sera/NHS ratio) [2, 21]: - (specific OD450 or cpm of sera sample binding to peptide divided by the specific OD450 or cpm of NHS sample binding to peptide, which value is less than 2); Binding of maternal HIV+ serum to peptide (sera/NHS ratio) [2, 22]: - (specific OD450 or cpm of sera sample binding to peptide divided by the specific OD450 or cpm of NHS sample binding to peptide, which value is less than 2)
FSYHRLRDLLLIVTR [Peptide 132] | 1 | 83 | 0 | 0 | + (which value is between 2 to 3) | - (specific OD450 or cpm of sera sample binding to peptide divided by the specific OD450 or cpm of NHS sample binding to peptide, which value is less than 2) | - (specific OD450 or cpm of sera sample binding to peptide divided by the specific OD450 or cpm of NHS sample binding to peptide, which value is less than 2) | - (specific OD450 or cpm of sera sample binding to peptide divided by the specific OD450 or cpm of NHS sample binding to peptide, which value is less than 2) | - (specific OD450 or cpm of sera sample binding to peptide divided by the specific OD450 or cpm of NHS sample binding to peptide, which value is less than 2) | - (specific OD450 or cpm of sera sample binding to peptide divided by the specific OD450 or cpm of NHS sample binding to peptide, which value is less than 2) | - (specific OD450 or cpm of sera sample binding to peptide divided by the specific OD450 or cpm of NHS sample binding to peptide, which value is less than 2) | - (specific OD450 or cpm of sera sample binding to peptide divided by the specific OD450 or cpm of NHS sample binding to peptide, which value is less than 2) | + (which value is between 2 to 3) | - (specific OD450 or cpm of sera sample binding to peptide divided by the specific OD450 or cpm of NHS sample binding to peptide, which value is less than 2) | - (specific OD450 or cpm of sera sample binding to peptide divided by the specific OD450 or cpm of NHS sample binding to peptide, which value is less than 2) | - (specific OD450 or cpm of sera sample binding to peptide divided by the specific OD450 or cpm of NHS sample binding to peptide, which value is less than 2) | - (specific OD450 or cpm of sera sample binding to peptide divided by the specific OD450 or cpm of NHS sample binding to peptide, which value is less than 2) | - (specific OD450 or cpm of sera sample binding to peptide divided by the specific OD450 or cpm of NHS sample binding to peptide, which value is less than 2) | - (specific OD450 or cpm of sera sample binding to peptide divided by the specific OD450 or cpm of NHS sample binding to peptide, which value is less than 2) | - (specific OD450 or cpm of sera sample binding to peptide divided by the specific OD450 or cpm of NHS sample binding to peptide, which value is less than 2) | Binding of maternal HIV+ serum to peptide (sera/NHS ratio) [2, 19]: - (specific OD450 or cpm of sera sample binding to peptide divided by the specific OD450 or cpm of NHS sample binding to peptide, which value is less than 2); Binding of maternal HIV+ serum to peptide (sera/NHS ratio) [2, 20]: - (specific OD450 or cpm of sera sample binding to peptide divided by the specific OD450 or cpm of NHS sample binding to peptide, which value is less than 2); Binding of maternal HIV+ serum to peptide (sera/NHS ratio) [2, 21]: - (specific OD450 or cpm of sera sample binding to peptide divided by the specific OD450 or cpm of NHS sample binding to peptide, which value is less than 2); Binding of maternal HIV+ serum to peptide (sera/NHS ratio) [2, 22]: - (specific OD450 or cpm of sera sample binding to peptide divided by the specific OD450 or cpm of NHS sample binding to peptide, which value is less than 2)
